Assay: Long-term stability in spiked pooled human plasma

Row | SMILES | Long-term stability, 1 month, -20°C Accuracy [%] (validation standard 2xLLOV) | Long-term stability, 1 month, -80°C Accuracy [%] (validation standard 2xLLOV) | Long-term stability, 2 month, -20°C Accuracy [%] (validation standard 2xLLOV) | Long-term stability, 2 month, -80°C Accuracy [%] (validation standard 2xLLOV) | Long-term stability, 3 month, -20°C Accuracy [%] (validation standard 2xLLOV) | Long-term stability, 3 month, -80°C Accuracy [%] (validation standard 2xLLOV) | Long-term stability, 6 weeks, 4°C, without daylight Accuracy [%] (validation standard 2xLLOV) | Long-term stability, 1 month, -20°C Accuracy [%] (validation standard LLOV) | Long-term stability, 1 month, -80°C Accuracy [%] (validation standard LLOV) | Long-term stability, 2 month, -20°C Accuracy [%] (validation standard LLOV) | Long-term stability, 2 month, -80°C Accuracy [%] (validation standard LLOV) | Long-term stability, 3 month, -20°C Accuracy [%] (validation standard LLOV) | Long-term stability, 3 month, -80°C Accuracy [%] (validation standard LLOV) | Long-term stability, 6 weeks, 4°C, without daylight Accuracy [%] (validation standard LLOV) | Long-term stability, 1 month, -20°C Accuracy [%] (validation standard MOV) | Long-term stability, 1 month, -80°C Accuracy [%] (validation standard MOV) | Long-term stability, 2 month, -20°C Accuracy [%] (validation standard MOV) | Long-term stability, 2 month, -80°C Accuracy [%] (validation standard MOV) | Long-term stability, 3 month, -20°C Accuracy [%] (validation standard MOV) | Long-term stability, 3 month, -80°C Accuracy [%] (validation standard MOV) | other results
1 | CCN1CCN(Cc2ccc(Nc3ncc(F)c(-c4cc(F)c5nc(C)n(C(C)C)c5c4)n3)nc2)CC1 [Abemaciclib] | 95.0% | 90.1% | 109.1% | 111.4% | 98.8% | 103.4% | 92.0% | 103.5% | 88.4% | 107.2% | 112.7% | 95.7% | 101.8% | 86.3% | 103.0% | 96.2% | 107.3% | 105.5% | 104.4% | 101.8% | Long-term stability, 6 weeks, 4°C, without daylight Accuracy [%] (validation standard MOV): 106.3%; Long-term stability, 1 month, -20°C Accuracy [%] (validation standard ULOV): 102.4%; Long-term stability, 1 month, -80°C Accuracy [%] (validation standard ULOV): 97.8%; Long-term stability, 2 month, -20°C Accuracy [%] (validation standard ULOV): 106.0%; Long-term stability, 2 month, -80°C Accuracy [%] (validation standard ULOV): 105.1%; Long-term stability, 3 month, -20°C Accuracy [%] (validation standard ULOV): 103.5%; Long-term stability, 3 month, -80°C Accuracy [%] (validation standard ULOV): 99.9%; Long-term stability, 6 weeks, 4°C, without daylight Accuracy [%] (validation standard ULOV): 99.1%
2 | C[C@]12CC[C@H](O)CC1=CC[C@@H]1[C@@H]2CC[C@]2(C)C(c3cccnc3)=CC[C@@H]12 [Abiraterone] | 96.2% | 93.5% | 101.0% | 100.1% | 97.2% | 97.9% | 101.6% | 96.5% | 93.2% | 97.0% | 105.8% | 101.7% | 106.0% | 110.7% | 95.8% | 93.5% | 101.2% | 102.9% | 101.8% | 100.6% | Long-term stability, 6 weeks, 4°C, without daylight Accuracy [%] (validation standard MOV): 106.4%; Long-term stability, 1 month, -20°C Accuracy [%] (validation standard ULOV): 98.3%; Long-term stability, 1 month, -80°C Accuracy [%] (validation standard ULOV): 93.2%; Long-term stability, 2 month, -20°C Accuracy [%] (validation standard ULOV): 102.5%; Long-term stability, 2 month, -80°C Accuracy [%] (validation standard ULOV): 103.2%; Long-term stability, 3 month, -20°C Accuracy [%] (validation standard ULOV): 99.7%; Long-term stability, 3 month, -80°C Accuracy [%] (validation standard ULOV): 100.6%; Long-term stability, 6 weeks, 4°C, without daylight Accuracy [%] (validation standard ULOV): 102.8%
3 | CN(C)C/C=C/C(=O)Nc1cc2c(Nc3ccc(F)c(Cl)c3)ncnc2cc1O[C@H]1CCOC1 [Afatinib] | 79.7% | 90.7% | 72.1% | 92.5% | 76.9% | 94.1% | 26.7% | 70.0% | 75.4% | 68.4% | 85.8% | 68.4% | 90.0% | 2.9% | 87.9% | 93.1% | 84.4% | 96.0% | 78.2% | 96.4% | Long-term stability, 6 weeks, 4°C, without daylight Accuracy [%] (validation standard MOV): 44.2%; Long-term stability, 1 month, -20°C Accuracy [%] (validation standard ULOV): 86.5%; Long-term stability, 1 month, -80°C Accuracy [%] (validation standard ULOV): 91.2%; Long-term stability, 2 month, -20°C Accuracy [%] (validation standard ULOV): 88.3%; Long-term stability, 2 month, -80°C Accuracy [%] (validation standard ULOV): 96.0%; Long-term stability, 3 month, -20°C Accuracy [%] (validation standard ULOV): 82.8%; Long-term stability, 3 month, -80°C Accuracy [%] (validation standard ULOV): 92.1%; Long-term stability, 6 weeks, 4°C, without daylight Accuracy [%] (validation standard ULOV): 37.3%
4 | O=C1CN2Cc3c(ccc(Cl)c3Cl)N=C2N1 [Anagrelide] | 99.8% | 105.6% | 121.4% | 118.5% | 110.2% | 114.9% | 74.6% | 103.9% | 121.5% | 128.7% | 141.5% | 101.8% | 118.8% | 33.5% | 95.0% | 97.0% | 101.3% | 98.7% | 95.7% | 95.1% | Long-term stability, 6 weeks, 4°C, without daylight Accuracy [%] (validation standard MOV): 103.7%; Long-term stability, 1 month, -20°C Accuracy [%] (validation standard ULOV): 95.4%; Long-term stability, 1 month, -80°C Accuracy [%] (validation standard ULOV): 90.8%; Long-term stability, 2 month, -20°C Accuracy [%] (validation standard ULOV): 94.5%; Long-term stability, 2 month, -80°C Accuracy [%] (validation standard ULOV): 99.2%; Long-term stability, 3 month, -20°C Accuracy [%] (validation standard ULOV): 94.9%; Long-term stability, 3 month, -80°C Accuracy [%] (validation standard ULOV): 94.7%; Long-term stability, 6 weeks, 4°C, without daylight Accuracy [%] (validation standard ULOV): 97.1%
